Measured values: US7041810B2, “Alpha-2 adrenergic receptor polymorphisms” (University Of Cincinnati, priority 2000, dated 2006)
Positions count from the first letter of the chain named.

Experiments:
Lys251 alpha-2AAR [1] = target: T1, Lys251 alpha-2AAR (Homo sapiens, UniProt P08913, N266K); test: [35S]GTPγS binding, membranes of COS-7 cells coexpressing Giα2; format: biochemical; parameters: expressed in transfected cells; membranes or intact cells; conditions: 10 μM agonist
T1 sequence (P08913 16-465 N266K): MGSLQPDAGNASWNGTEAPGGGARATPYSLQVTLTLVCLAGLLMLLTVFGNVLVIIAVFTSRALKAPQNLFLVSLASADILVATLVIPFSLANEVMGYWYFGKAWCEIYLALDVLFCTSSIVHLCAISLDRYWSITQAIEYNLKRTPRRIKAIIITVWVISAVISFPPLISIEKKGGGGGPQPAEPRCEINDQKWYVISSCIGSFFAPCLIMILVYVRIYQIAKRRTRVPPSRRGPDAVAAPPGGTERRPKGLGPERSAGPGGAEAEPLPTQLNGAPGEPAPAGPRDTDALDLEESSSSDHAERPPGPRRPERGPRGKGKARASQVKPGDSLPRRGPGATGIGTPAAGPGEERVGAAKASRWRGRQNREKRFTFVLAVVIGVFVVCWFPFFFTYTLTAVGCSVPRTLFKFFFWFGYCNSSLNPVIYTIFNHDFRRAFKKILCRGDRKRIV
Method: Receptor-G protein interaction was quantitated by [^35S] radiolabeled guanosine-5′-O-(3-thiotriphosphate) ([^35S]GTPγS) binding in COS-7 cells transiently transfected with each alpha-2AAR construct and Giα2. […] Nonspecific binding was measured in the presence of 10 μM GTPγS.

wild-type alpha-2CAR [2] = target: T2, wild-type alpha-2CAR (Homo sapiens, UniProt P18825); test: Inhibition of forskolin stimulated adenylyl cyclase, CHO membranes; format: biochemical
T2 construct: expressed in transfected cells; membranes or intact cells
T2 sequence (P18825 1-462 L239R/S401I/R446P): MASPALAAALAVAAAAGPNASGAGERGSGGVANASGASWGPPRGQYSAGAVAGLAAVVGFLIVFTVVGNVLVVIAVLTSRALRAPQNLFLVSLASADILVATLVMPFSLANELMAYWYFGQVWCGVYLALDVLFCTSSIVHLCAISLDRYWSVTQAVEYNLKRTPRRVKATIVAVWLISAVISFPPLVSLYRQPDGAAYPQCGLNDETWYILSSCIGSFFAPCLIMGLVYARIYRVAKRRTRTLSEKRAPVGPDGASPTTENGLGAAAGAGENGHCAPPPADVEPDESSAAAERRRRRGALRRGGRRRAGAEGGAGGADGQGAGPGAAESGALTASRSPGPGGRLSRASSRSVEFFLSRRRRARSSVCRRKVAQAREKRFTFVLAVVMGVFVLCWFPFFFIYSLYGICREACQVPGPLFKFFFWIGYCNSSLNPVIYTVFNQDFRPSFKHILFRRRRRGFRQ
Excerpt: (§1) Reactions were terminated by the addition of a stop solution containing excess ATP and cAMP and ˜100,000 dpm of [^3H]cAMP. Labeled cAMP was isolated by gravity chromatography over alumina columns with [^3H]cAMP used to quantitate column recovery. […] Results are expressed as percent inhibition of forskolin stimulated activity.

wild-type alpha-2BAR [3] = target: T3, wild-type alpha-2BAR (Homo sapiens, UniProt P18089); test: Inhibition of forskolin stimulated adenylyl cyclase and desensitization, CHO membranes; format: biochemical; parameters: The human receptor consists of 450 amino acids; expressed in transfected cells
T3 sequence (P18089 1-450): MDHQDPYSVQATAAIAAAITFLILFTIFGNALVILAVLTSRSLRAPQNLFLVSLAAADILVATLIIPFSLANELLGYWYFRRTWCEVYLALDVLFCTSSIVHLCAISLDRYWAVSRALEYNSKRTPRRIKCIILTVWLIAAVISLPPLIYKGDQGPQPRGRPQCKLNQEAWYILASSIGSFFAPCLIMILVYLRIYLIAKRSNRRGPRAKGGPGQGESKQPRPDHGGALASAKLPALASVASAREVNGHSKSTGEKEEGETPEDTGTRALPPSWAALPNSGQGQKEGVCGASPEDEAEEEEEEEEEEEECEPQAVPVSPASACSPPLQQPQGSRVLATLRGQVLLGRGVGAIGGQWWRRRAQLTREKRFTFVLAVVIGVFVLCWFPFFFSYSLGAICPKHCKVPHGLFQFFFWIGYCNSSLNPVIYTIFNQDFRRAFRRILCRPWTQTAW
Method: For desensitization experiments, cells were pretreated for 30 min at 37° with media alone or with media containing 10 μM norepinephrine, placed on ice, and washed five times with cold PBS prior to membrane preparation. Desensitization of alpha-2BAR is manifested by a shift to the right in the dose-response curve for the inhibition of adenylyl cyclase (i.e., increase in EC50) without a significant change in the maximal response (17-19). To quantitate the magnitude of this desensitization, the inhibitory response under control conditions at a submaximal concentration of agonist (the EC50) in the assay was determined from the curve and compared to the response to this same concentration from membranes derived from cells exposed to norepinephrine. This method has been previously validated (26) in several G protein coupled receptor systems.

wild-type alpha-2CAR [4] = target: T4, wild-type alpha-2CAR (Homo sapiens, UniProt P18825, L239R/R446P/S401I); conditions: 10 μM epinephrine, 5 min; 806±140 fmol/mg
T4 sequence (P18825 1-462 L239R/S401I/R446P): T2 sequence (P18825 1-462 L239R/S401I/R446P)

wild-type alpha-2CAR [5] = target: T4, wild-type alpha-2CAR; conditions: 10 μM epinephrine; thrombin 1 unit/ml
wild-type alpha-2CAR [6] = target: T4, wild-type alpha-2CAR; test: Inhibition of forskolin stimulated adenylyl cyclase, CHO membranes; format: biochemical; parameters: expressed in transfected cells; membranes or intact cells; conditions: lower expressing line 565±69 fmol/mg
Excerpt: as §1

Lys251 alpha-2AAR [7] = target: T1, Lys251 alpha-2AAR
Method: (§2) Alpha-2AAR inhibition of adenylyl cyclase was determined in membrane preparations from CHO cells stably expressing the two receptors using methods similar to those previously described (18). […] Reactions were terminated by the addition of a stop solution containing excess ATP and cAMP and ˜100,000 dpm of [^3H]cAMP. Labeled cAMP was isolated by gravity chromatography over alumina columns with [^3H]cAMP used to quantitate column recovery. […] Results are expressed as percent inhibition of forskolin stimulated activity.

[8] = target: T5, wild-type Asn251 alpha-2AAR (Homo sapiens, UniProt P08913); conditions: 5.0 μM forskolin, no agonist
T5 sequence (P08913 16-465): T1 sequence (P08913 16-465 N266K) with K251N
Method: as §2

wild-type alpha-2BAR [9] = target: T3, wild-type alpha-2BAR; conditions: read-out: [125I]-aminoclonidine saturation binding KD

N=C(N)N/N=C/c1c(Cl)cccc1Cl [guanabenz]
enhanced [35S]GTPγS binding for Lys251 as compared to the Asn251 receptor (Lys251 alpha-2AAR [1]): 72%

Brc1c(NC2=NCCN2)ccc2nccnc12 [UK 14304]
enhanced [35S]GTPγS binding for Lys251 as compared to the Asn251 receptor (Lys251 alpha-2AAR [1]): ~40%

CCN1CCc2nc(N)oc2CC1 [BHT-933]
enhanced [35S]GTPγS binding for Lys251 as compared to the Asn251 receptor (Lys251 alpha-2AAR [1]): 45%

NC[C@H](O)c1ccc(O)c(O)c1 [norepinephrine]
enhanced [35S]GTPγS binding for Lys251 as compared to the Asn251 receptor (Lys251 alpha-2AAR [1]): ~40% | EC50 (wild-type alpha-2CAR [2]): 219 ± 13.7 nM | EC50 (wild-type alpha-2BAR [3]): 7.9 ± 2.1 nM | Max Inhibition (%) of forskolin stimulated adenylyl cyclase (wild-type alpha-2BAR [3]; 626±54 fmol/mg): 28.5 ± 1.6% | Desensitization (%) (wild-type alpha-2BAR [3]; after 10 μM norepinephrine 30 min): ~54% | Submax inhibition (%) Ctrl (wild-type alpha-2BAR [3]; agonist at the EC50 of control membranes, cells pretreated with media alone): 16.5 ± 3.9% | Submax inhibition (%) NE (wild-type alpha-2BAR [3]; same agonist concentration, cells pretreated with 10 μM norepinephrine 30 min): 7.6 ± 2.3 %

CNC[C@H](O)c1ccc(O)c(O)c1 [epinephrine]
accumulation of inositol phosphates over basal (wild-type alpha-2CAR [4]): 30±3% | MAP kinase stimulation as a percent of the thrombin response (wild-type alpha-2CAR [5]): 128±10.0% | inhibition of adenylyl cyclase (wild-type alpha-2CAR [6]): 73±2.4%

Cc1cc(C(C)(C)C)c(O)c(C)c1CC1=NCCN1 [oxymetazoline]
augmented function of Lys251 compared to the Asn251 receptor (Lys251 alpha-2AAR [7]; adenylyl cyclase inhibition): ~40%

C=C[C@@]1(C)CC(=O)[C@]2(O)[C@@]3(C)[C@@H](O)CCC(C)(C)[C@@H]3[C@H](O)[C@H](OC(C)=O)[C@@]2(C)O1 [Forskolin, forskolin]
Forskolin adenylyl cyclase activity [8]: 32.7 ± 4.0 pmol/min/mg | Forskolin adenylyl cyclase activity (Lys251 alpha-2AAR [7]; 5.0 μM forskolin, no agonist): 31.6 ± 6.5 pmol/min/mg | Forskolin adenylyl cyclase activity (wild-type alpha-2BAR [3]; forskolin 5 μM, no agonist): 15.1 ± 0.9 pmol/min/mg

Nc1cc(Cl)c(NC2=NCCN2)c(Cl)c1I [[^125I]-aminoclonidine, aminoclonidine]
Kd (wild-type alpha-2BAR [9]): 1.33 ± 0.12 nM
